Measurements reported in US12077503B2, “Substituted cyclic amides and their use as herbicides” (FMC CORPORATION, priority 2015, dated 2024).

How the values were obtained:
Format in all cases: in vivo
[1] = tested on: barnyardgrass (Echinochloa crus-galli); assay: Test G Post-Emergence Protocol; details: Echinochloa crus-galli, post-emergence, 312 h, read-out: Barnyardgrass damage rating; for pest or weed control at 15.625 g/ha: 15.625 g ai/ha, evaluated after 13 days (100=total damage to plant; 0=no damage to plant); for pest or weed control at 62.5 g/ha: 62.5 g ai/ha; for pest or weed control at 62.5 g/ha / pest or weed control at 250 g/ha: evaluated after 13 days, 100=total damage to plant, 0=no damage to plant; for pest or weed control at 250 g/ha: 250 g ai/ha
How it was run: (§1)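 Damage was rated 13 days after treatment from 0 (none) to 100 (plant killed). Compound was applied as a spray at 15.625, 62.5 or 250 g/ha in 50:50 acetone/water containing 0.5% Tween 20, onto 8-day-old potted plants kept in a glasshouse (24/16 °C, 14 h light, 65% humidity).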

corn (Zea mays) [2] = assay: Test G Post-Emergence Protocol; details: Zea mays, post-emergence, 312 h, read-out: Corn damage rating; for plant injury at 15.625 g/ha: 15.625 g ai/ha, evaluated after 13 days (100=total damage to plant; 0=no damage to plant); for plant injury at 62.5 g/ha: 62.5 g ai/ha; for plant injury at 62.5 g/ha / plant injury at 250 g/ha: evaluated after 13 days, 100=total damage to plant, 0=no damage to plant; for plant injury at 250 g/ha: 250 g ai/ha
How it was run: as §1

[3] = tested on: redroot pigweed (Amaranthus retroflexus); assay: Test G Post-Emergence Protocol; details: Amaranthus retroflexus, post-emergence, 312 h, read-out: Pigweed, Redroot damage rating; for pest or weed control at 15.625 g/ha: 15.625 g ai/ha, evaluated after 13 days (100=total damage to plant; 0=no damage to plant); for pest or weed control at 62.5 g/ha: 62.5 g ai/ha; for pest or weed control at 62.5 g/ha / pest or weed control at 250 g/ha: evaluated after 13 days, 100=total damage to plant, 0=no damage to plant; for pest or weed control at 250 g/ha: 250 g ai/ha
How it was run: as §1

[4] = tested on: giant foxtail (Setaria faberi); assay: Test G Post-Emergence Protocol; details: Setaria faberi, post-emergence, 312 h, read-out: Foxtail, Giant damage rating; for pest or weed control at 15.625 g/ha: 15.625 g ai/ha, evaluated after 13 days (100=total damage to plant; 0=no damage to plant); for pest or weed control at 62.5 g/ha: 62.5 g ai/ha; for pest or weed control at 62.5 g/ha / pest or weed control at 250 g/ha: evaluated after 13 days, 100=total damage to plant, 0=no damage to plant; for pest or weed control at 250 g/ha: 250 g ai/ha
How it was run: as §1

[5] = tested on: velvetleaf (Abutilon theophrasti); assay: Test G Post-Emergence Protocol; details: Abutilon theophrasti, post-emergence, 312 h, read-out: Velvetleaf damage rating; for pest or weed control at 15.625 g/ha: 15.625 g ai/ha, evaluated after 13 days (100=total damage to plant; 0=no damage to plant); for pest or weed control at 62.5 g/ha: 62.5 g ai/ha; for pest or weed control at 62.5 g/ha / pest or weed control at 250 g/ha: evaluated after 13 days, 100=total damage to plant, 0=no damage to plant; for pest or weed control at 250 g/ha: 250 g ai/ha
How it was run: as §1

[6] = tested on: ivy-leaved morning glory (Ipomoea hederacea); assay: Test G Post-Emergence Protocol; details: Ipomoea, post-emergence, 312 h, read-out: Morningglory, Ivy-leaved damage rating; for pest or weed control at 15.625 g/ha: 15.625 g ai/ha, evaluated after 13 days (100=total damage to plant; 0=no damage to plant); for pest or weed control at 62.5 g/ha: 62.5 g ai/ha; for pest or weed control at 62.5 g/ha / pest or weed control at 250 g/ha: evaluated after 13 days, 100=total damage to plant, 0=no damage to plant; for pest or weed control at 250 g/ha: 250 g ai/ha
How it was run: as §1

[7] = tested on: barnyardgrass (Echinochloa crus-galli); assay: Test G Pre-Emergence Protocol; details: Echinochloa crus-galli, pre-emergence, 312 h, evaluated after 13 days; for pest or weed control at 15.625 g/ha: 15.625 g ai/ha; for pest or weed control at 15.625 g/ha / pest or weed control at 250 g/ha: read-out: Barnyardgrass damage rating (100=total damage to plant; 0=no damage to plant); for pest or weed control at 62.5 g/ha: 62.5 g ai/ha, 100=total damage to plant, 0=no damage to plant, read-out: Barnyardgrass damage rating; for pest or weed control at 250 g/ha: 250 g ai/ha
How it was run: (§2)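 One day after sowing, pots are treated with a spray of test compound formulated in acetone/water 50:50 plus 0.5% Tween 20, giving 15.625, 62.5 or 250 g/ha. Evaluation on a 0–100 damage scale follows 13 days of glasshouse growth.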

corn (Zea mays) [8] = assay: Test G Pre-Emergence Protocol; details: Zea mays, pre-emergence, 312 h, evaluated after 13 days; for plant injury at 15.625 g/ha: 15.625 g ai/ha; for plant injury at 15.625 g/ha / plant injury at 250 g/ha: read-out: Corn damage rating (100=total damage to plant; 0=no damage to plant); for plant injury at 62.5 g/ha: 62.5 g ai/ha, 100=total damage to plant, 0=no damage to plant, read-out: Corn damage rating; for plant injury at 250 g/ha: 250 g ai/ha
How it was run: as §2

[9] = tested on: redroot pigweed (Amaranthus retroflexus); assay: Test G Pre-Emergence Protocol; details: Amaranthus retroflexus, pre-emergence, 312 h, evaluated after 13 days; for pest or weed control at 15.625 g/ha: 15.625 g ai/ha; for pest or weed control at 15.625 g/ha / pest or weed control at 250 g/ha: read-out: Pigweed, Redroot damage rating (100=total damage to plant; 0=no damage to plant); for pest or weed control at 62.5 g/ha: 62.5 g ai/ha, 100=total damage to plant, 0=no damage to plant, read-out: Pigweed, Redroot damage rating; for pest or weed control at 250 g/ha: 250 g ai/ha
How it was run: as §2

[10] = tested on: giant foxtail (Setaria faberi); assay: Test G Pre-Emergence Protocol; details: Setaria faberi, pre-emergence, 312 h, evaluated after 13 days; for pest or weed control at 15.625 g/ha: 15.625 g ai/ha; for pest or weed control at 15.625 g/ha / pest or weed control at 250 g/ha: read-out: Foxtail, Giant damage rating (100=total damage to plant; 0=no damage to plant); for pest or weed control at 62.5 g/ha: 62.5 g ai/ha, 100=total damage to plant, 0=no damage to plant, read-out: Foxtail, Giant damage rating; for pest or weed control at 250 g/ha: 250 g ai/ha
How it was run: as §2

[11] = tested on: velvetleaf (Abutilon theophrasti); assay: Test G Pre-Emergence Protocol; details: Abutilon theophrasti, pre-emergence, 312 h, evaluated after 13 days; for pest or weed control at 15.625 g/ha: 15.625 g ai/ha; for pest or weed control at 15.625 g/ha / pest or weed control at 250 g/ha: read-out: Velvetleaf damage rating (100=total damage to plant; 0=no damage to plant); for pest or weed control at 62.5 g/ha: 62.5 g ai/ha, 100=total damage to plant, 0=no damage to plant, read-out: Velvetleaf damage rating; for pest or weed control at 250 g/ha: 250 g ai/ha
How it was run: as §2

[12] = tested on: ivy-leaved morning glory (Ipomoea hederacea); assay: Test G Pre-Emergence Protocol; details: Ipomoea, pre-emergence, 312 h, evaluated after 13 days; for pest or weed control at 15.625 g/ha: 15.625 g ai/ha; for pest or weed control at 15.625 g/ha / pest or weed control at 250 g/ha: read-out: Morningglory, Ivy-leaved damage rating (100=total damage to plant; 0=no damage to plant); for pest or weed control at 62.5 g/ha: 62.5 g ai/ha, 100=total damage to plant, 0=no damage to plant, read-out: Morningglory, Ivy-leaved damage rating; for pest or weed control at 250 g/ha: 250 g ai/ha
How it was run: as §2

Row | SMILES | pest or weed control at 15.625 g/ha [1] | pest or weed control at 62.5 g/ha [1] | pest or weed control at 250 g/ha [1] | plant injury at 15.625 g/ha (corn (Zea mays) [2]) | plant injury at 62.5 g/ha (corn (Zea mays) [2]) | plant injury at 250 g/ha (corn (Zea mays) [2]) | pest or weed control at 15.625 g/ha [3] | pest or weed control at 62.5 g/ha [3] | pest or weed control at 250 g/ha [3] | pest or weed control at 15.625 g/ha [4] | pest or weed control at 62.5 g/ha [4] | pest or weed control at 250 g/ha [4] | pest or weed control at 15.625 g/ha [5] | pest or weed control at 62.5 g/ha [5] | pest or weed control at 250 g/ha [5] | pest or weed control at 15.625 g/ha [6] | pest or weed control at 62.5 g/ha [6] | pest or weed control at 250 g/ha [6] | pest or weed control at 15.625 g/ha [7] | pest or weed control at 62.5 g/ha [7] | other results
1 | Cc1cc([C@H]2CN(C)C(=O)[C@@H]2C(=O)Nc2ccc(F)c(F)c2F)cnn1 (racemic) [Compound 1663] | 0% | 0% | 0% | 0% | 0% | 0% | 0% | 0% | 0% | 0% | 0% | 0% | 0% | 0% | 0% | 0% | 0% | 0% | 0% | 0% | pest or weed control at 250 g/ha [7]: 0%; plant injury at 15.625 g/ha (corn (Zea mays) [8]): 0%; plant injury at 62.5 g/ha (corn (Zea mays) [8]): 0%; plant injury at 250 g/ha (corn (Zea mays) [8]): 0%; pest or weed control at 15.625 g/ha [9]: 0%; pest or weed control at 62.5 g/ha [9]: 0%; pest or weed control at 250 g/ha [9]: 0%; pest or weed control at 15.625 g/ha [10]: 0%; pest or weed control at 62.5 g/ha [10]: 0%; pest or weed control at 250 g/ha [10]: 0%; pest or weed control at 15.625 g/ha [11]: 0%; pest or weed control at 62.5 g/ha [11]: 0%; pest or weed control at 250 g/ha [11]: 0%; pest or weed control at 15.625 g/ha [12]: 0%; pest or weed control at 62.5 g/ha [12]: 0%; pest or weed control at 250 g/ha [12]: 0%
2 | Cc1ccc(C2CN(C)C(=O)C2C(=O)Nc2cccc(F)c2F)cc1C#N (stereo not drawn) [Compound 1687] | 0% | 50% | 80% | 10% | 40% | 90% | 40% | 40% | 50% | 60% | 80% | 80% | 40% | 40% | 50% | 20% | 60% | 70% | 40% | 70% | pest or weed control at 250 g/ha [7]: 80%; plant injury at 15.625 g/ha (corn (Zea mays) [8]): 0%; plant injury at 62.5 g/ha (corn (Zea mays) [8]): 40%; plant injury at 250 g/ha (corn (Zea mays) [8]): 90%; pest or weed control at 15.625 g/ha [9]: 0%; pest or weed control at 62.5 g/ha [9]: 10%; pest or weed control at 250 g/ha [9]: 30%; pest or weed control at 15.625 g/ha [10]: 60%; pest or weed control at 62.5 g/ha [10]: 70%; pest or weed control at 250 g/ha [10]: 90%; pest or weed control at 15.625 g/ha [11]: 0%; pest or weed control at 62.5 g/ha [11]: 0%; pest or weed control at 250 g/ha [11]: 10%; pest or weed control at 15.625 g/ha [12]: 0%; pest or weed control at 62.5 g/ha [12]: 40%; pest or weed control at 250 g/ha [12]: 50%
